Laboratory results from publication PMC7558399, “In Vitro Selective Growth-Inhibitory Activities of Phytochemicals, Synthetic Phytochemical Analogs, and Antibiotics against Diarrheagenic/Probiotic Bacteria and Cancer/Normal Intestinal Cells” (Pharmaceuticals, 2020).
In brackets after ≈: the same amount, converted by molar mass. Read-outs that look alike come from different tables or passages of the source.

Experiments:
Assay type in all cases: cell-based
[1] = test system: Bifidobacterium breve (ATCC 15700); test: Broth microdilution MIC, B. breve; conditions: ATCC15700, growth inhibited by ≥80%, read-out: MIC
[2] = test system: Clostridium perfringens (DSMZ 11778); test: microbe, parasite or virus in culture; conditions: DSMZ11778
[3] = test system: Yersinia enterocolitica (ATCC 9610); test: Broth microdilution MIC, Y. enterocolitica; conditions: ATCC9610, growth inhibited by ≥80%, read-out: MIC
[4] = test system: FHs 74 Int (ATCC CCL 241) intestinal normal cells; test: MTT cytotoxicity assay, FHs 74 Int; conditions: FHs74Int, 72 h, FHs 74 Int (intestinal normal cells), MTT; for IC50: read-out: IC50 ± SD; for IC80: read-out: IC80 ± SD (80% inhibitory concentration of proliferation)
[5] = test system: Escherichia coli (ATCC 25922); test: Broth microdilution MIC, E. coli; conditions: ATCC25922, growth inhibited by ≥80%, read-out: MIC
[6] = test system: Lactobacillus casei (DSMZ 20011); test: Broth microdilution MIC, L. casei; conditions: Lacticaseibacillus casei, DSMZ20011; Lactobacillus casei; growth inhibited by ≥80%; read-out: MIC
[7] = test system: Bifidobacterium adolescentis (DSMZ 20087); test: Broth microdilution MIC, B. adolescentis; conditions: DSMZ20087, growth inhibited by ≥80%, read-out: MIC
[8] = test system: Shigella flexneri (ATCC 12022); test: microbe, parasite or virus in culture; conditions: ATCC12022
[9] = test system: Lactobacillus reuteri (CCM 3625); test: Broth microdilution MIC, L. reuteri; conditions: Limosilactobacillus reuteri, CCM3625; Lactobacillus reuteri; growth inhibited by ≥80%; read-out: MIC
[10] = test system: Lactobacillus rhamnosus (CCM 7091); test: Broth microdilution MIC, L. rhamnosus; conditions: Lacticaseibacillus rhamnosus, CCM7091; Lactobacillus rhamnosus; growth inhibited by ≥80%; read-out: MIC
[11] = test system: diarrheagenic bacteria (12 strains); test: microbe, parasite or virus in culture; conditions: mean of 12 strains; >512 replaced with 1024; read-out: x¯ -DB ± SD: mean MIC for diarrheagenic bacteria
[12] = test system: Bifidobacterium bifidum (ATCC 29521); test: Broth microdilution MIC, B. bifidum; conditions: ATCC29521, growth inhibited by ≥80%, read-out: MIC
[13] = test system: Salmonella enterica ssp. enterica serovar Enteritidis (ATCC 13076); test: Broth microdilution MIC, Salmonella Enteritidis; conditions: Salmonella Enteritidis, growth inhibited by ≥80%, read-out: MIC
[14] = test system: E. coli 0175:H7 (NCTC 12900); test: microbe, parasite or virus in culture; conditions: Escherichia coli, NCTC12900
[15] = test system: Enterococcus faecalis (ATCC 29212); test: Broth microdilution MIC, E. faecalis; conditions: ATCC29212, growth inhibited by ≥80%, read-out: MIC
[16] = test system: HT29 (ATCC HTB 38) intestinal cancer cells; test: MTT cytotoxicity assay, HT29; conditions: Homo sapiens, HT-29, HT29, MTT, 72 h; for IC50: read-out: IC50 ± SD; for IC80: read-out: IC80 ± SD (80% inhibitory concentration of proliferation)
[17] = test system: Caco-2 (ATCC HTB 37) intestinal cancer cells; test: MTT cytotoxicity assay, Caco-2; conditions: Homo sapiens, Caco-2, MTT, 72 h; for IC50: read-out: IC50 ± SD; for IC80: read-out: IC80 ± SD (80% inhibitory concentration of proliferation)
[18] = test system: Vibrio parahaemolyticus (ATCC 17802); test: Broth microdilution MIC, V. parahaemolyticus; conditions: ATCC17802, growth inhibited by ≥80%, read-out: MIC
[19] = test system: Listeria monocytogenes (ATCC 7644); test: Broth microdilution MIC, L. monocytogenes; conditions: ATCC7644, growth inhibited by ≥80%, read-out: MIC
[20] = test system: S. enterica ssp. enterica serovar Typhimurium (ATCC 14028); test: Broth microdilution MIC, Salmonella Typhimurium; conditions: Salmonella Typhimurium, growth inhibited by ≥80%, read-out: MIC
[21] = test system: Bifidobacterium longum ssp. longum (DSMZ 20219); test: Broth microdilution MIC, B. longum ssp. longum; conditions: DSMZ20219; Bifidobacterium longum ssp. longum; growth inhibited by ≥80%; read-out: MIC
[22] = test system: Bifidobacterium animalis spp. lactis (DSMZ 10140); test: Broth microdilution MIC, B. animalis spp. lactis; conditions: DSMZ10140; Bifidobacterium animalis spp. lactis; growth inhibited by ≥80%; read-out: MIC
[23] = test system: Bacteroides fragilis (ATCC 25285); test: Broth microdilution MIC, B. fragilis; conditions: ATCC25285, growth inhibited by ≥80%, read-out: MIC
[24] = test system: 21 strains (diarrheagenic and probiotic bacteria); test: organism not typed; conditions: any of the 21 strains
[25] = test system: Clostridium difficile (DSMZ 12056); test: microbe, parasite or virus in culture; conditions: Clostridioides difficile, DSMZ12056
[26] = test system: Bacillus cereus (ATCC 14579); test: Broth microdilution MIC, B. cereus; conditions: ATCC14579, growth inhibited by ≥80%, median/mode, read-out: MIC
[27] = test system: probiotic bacteria (9 strains); test: Broth microdilution MIC, probiotic bacteria as a group (mean or range over strains); conditions: mean of 9 strains; >512 replaced with 1024; read-out: x¯ -PB ± SD: mean MIC for probiotic bacteria
[28] = test system: intestinal cancer cells (HT29 and Caco-2); test: MTT cytotoxicity assay, mean for intestinal cancer cells; conditions: for IC50: mean of HT29 and Caco-2, >512 replaced with 1024, read-out: x¯ -CC ± SD: mean IC50 for intestinal cancer cells; for IC80: read-out: x¯ -CC ± SD: mean IC80 for intestinal cancer cells

Row | SMILES | MIC [1] | MIC [2] | MIC [3] | IC50 [4] | IC80 [4] | MIC [5] | MIC [6] | MIC [7] | MIC [8] | MIC [9] | MIC [10] | MIC [11] | MIC [12] | MIC [13] | MIC [14] | MIC [15] | IC50 [16] | IC80 [16] | IC50 [17] | IC80 [17] | other results
1 | COc1ccc2cc3[n+](cc2c1OC)CCc1cc2c(cc1-3)OCO2 [BR, berberine chloride] | 64 µg/mL | 256 µg/mL | > 512 µg/mL | 1 ± 0.1 µg/mL | 26.4 ± 0.8 µg/mL | > 512 µg/mL | 64 µg/mL | 128 µg/mL | > 512 µg/mL | > 512 µg/mL | 64 µg/mL | 875 ± 256 µg/mL | 64 µg/mL | > 512 µg/mL | > 512 µg/mL | > 512 µg/mL | 5 ± 1 µg/mL | 42.1 ± 7.3 µg/mL | 19.4 ± 2.9 µg/mL | 78.9 ± 0.3 µg/mL | MIC [18]: 512 µg/mL; MIC [19]: > 512 µg/mL; MIC [20]: 512 µg/mL; MIC [21]: 32 µg/mL; MIC [22]: 32 µg/mL; MIC [23]: > 512 µg/mL; MIC [24]: ≥ 32 µg/mL; MIC [25]: > 512 µg/mL; MIC [26]: > 512 µg/mL; MIC [27]: 277 ± 400 µg/mL; IC50 [28]: 12.2 ± 7 µg/mL; IC80 [28]: 60.5 ± 18.4 µg/mL
2 | O=S(=O)(O)c1cc(I)c(O)c2ncccc12 [FRN, 7-iodo-8-hydroxyquinoline-5-sulfonic acid] | 512 µg/mL (≈ 1460 µM) | 64 µg/mL (≈ 182 µM) | > 512 µg/mL | 22.6 ± 3.3 µg/mL (≈ 64.4 µM) | 46 ± 2.2 µg/mL (≈ 131 µM) | > 512 µg/mL | 256 µg/mL (≈ 729 µM) | 256 µg/mL (≈ 729 µM) | > 512 µg/mL | 512 µg/mL (≈ 1460 µM) | 512 µg/mL (≈ 1460 µM) | 715 ± 388 µg/mL (≈ 2040 µM) | 512 µg/mL (≈ 1460 µM) | > 512 µg/mL | > 512 µg/mL | > 512 µg/mL | 86.3 ± 12 µg/mL (≈ 246 µM) | 149 ± 6 µg/mL (≈ 425 µM) | 55.2 ± 4.8 µg/mL (≈ 157 µM) | 140 ± 26 µg/mL (≈ 398 µM) | MIC [18]: 256 µg/mL (≈ 729 µM); MIC [19]: 512 µg/mL (≈ 1460 µM); MIC [20]: > 512 µg/mL; MIC [21]: 256 µg/mL (≈ 729 µM); MIC [22]: 512 µg/mL (≈ 1460 µM); MIC [23]: 128 µg/mL (≈ 365 µM); MIC [24]: ≥ 64 µg/mL; MIC ([25]; Clostridium difficile, […], read-out: MIC): 64 µg/mL (≈ 182 µM); MIC [26]: 512 µg/mL (≈ 1460 µM); MIC [27]: 384 ± 148 µg/mL (≈ 1090 µM); IC50 [28]: 70.8 ± 16 µg/mL (≈ 202 µM); IC80 [28]: 145 ± 4.8 µg/mL (≈ 412 µM)
